According to US4657931A, “N-(acyldipeptidyl)-aminoglycols” (G. D. Searle & Co., priority 1985, dated 1987):
Where a chain is given by its changes, count along the chain named. Square brackets hold non-standard residues; d marks the D form. Peptide text beside a SMILES is read from it. * marks the point of attachment. Sta = CC(C)C[C@H](N)[C@@H](O)CC(=O)O; Isovaleryl = CC(C)CC(=O)*

Legend:
human renin = target: T1, human renin (Homo sapiens, UniProt P00797); assay: Human Renin Test (angiotensin I by radioimmunoassay); assay type: biochemical
T1 sequence (P00797 67-406): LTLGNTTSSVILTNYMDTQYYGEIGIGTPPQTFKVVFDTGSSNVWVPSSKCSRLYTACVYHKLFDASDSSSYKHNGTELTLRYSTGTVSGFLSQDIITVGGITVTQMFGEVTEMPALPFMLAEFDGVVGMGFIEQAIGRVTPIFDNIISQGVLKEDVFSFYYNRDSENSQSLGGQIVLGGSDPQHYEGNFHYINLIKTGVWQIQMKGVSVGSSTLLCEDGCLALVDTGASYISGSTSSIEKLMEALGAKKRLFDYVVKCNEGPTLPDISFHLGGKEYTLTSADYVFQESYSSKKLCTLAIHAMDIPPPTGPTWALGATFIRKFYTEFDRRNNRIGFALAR
Experimental: The enzyme preparation was the international reference standard for human renin while human blood plasma was the angiotensinogen substrate source. The enzyme inhibition assay involved a two-hour incurbation at 37° C. of the following final concentrations of reagents (total volume of 0.25 ml): 0.1 mG units/ml human renin, 0.05 ml human plasma, 6 mM Na2 EDTA, 2.4 mM PMSF, 1.5 mM 8-hydroxyquinoline, 0.4 mg/ml BSA, 0.024 mg/ml neomycin sulfate in a 100 mM Tris Acetate buffer, pH 7.5. The reaction was terminated by boiling for 10 min and the angiotensin I produced was determined by radioimmunoassay.
This assay is a modification of the one by Burton et al. (Biochemistry 14, 3892, 1975).

monkey renin = target: T2, monkey renin (Macaca mulatta, UniProt Q6DLW5); assay: Monkey Renin Test: plasma renin activity of Lasix treated Rhesus monkeys; assay type: in vivo; parameters: Plasma renin activity (PRA), Pre-Lasix -24 hr / Plasma renin activity (PRA), Post-Lasix 0 hr / Plasma renin activity (PRA), Post-Lasix 2 min / Plasma renin activity (PRA), Post-Lasix 5 min / Plasma renin activity (PRA), Post-Lasix 15 min: unit not given here; details: for PRA after 15 min, in words / PRA at 2 min after treatment, in words: 10 mg/kg iv, lasix treated Rhesus monkeys; for Plasma renin activity (PRA), Post-Lasix 2 min: 2 min after 10 mg/kg iv; for Plasma renin activity (PRA), Post-Lasix 2 min / Plasma renin activity (PRA), Post-Lasix 5 min / Plasma renin activity (PRA), Post-Lasix 15 min / Plasma renin activity (PRA), Pre-Lasix -24 hr / Plasma renin activity (PRA), Post-Lasix 0 hr: mean ± S.E., n = 6; for Plasma renin activity (PRA), Post-Lasix 5 min: 5 min after 10 mg/kg iv; for Plasma renin activity (PRA), Post-Lasix 15 min: 15 min after 10 mg/kg iv; for Plasma renin activity (PRA), Pre-Lasix -24 hr: baseline before lasix and before drug, group later given 10 mg/kg iv; for Plasma renin activity (PRA), Post-Lasix 0 hr: immediately before drug treatment (10 mg/kg iv)
T2 construct: from tissue; host or cells: plasma of furosemide-treated Rhesus monkeys
T2 sequence (Q6DLW5 67-406): T1 sequence (P00797 67-406) with T2A, I148L, S169A, Q204P, R340H
Experimental: Rhesus monkeys (6/group) weighing (6.3-9.9 kg) were treated with lasix (furosemide) at 2 mg/kg, both in the A.M. and P.M. on day 1. […] Plasma samples (K-EDTA) were taken before the initial lasix, immediately before the drug treatment and at 2, 5, 15 min after the treatment. Plasma renin activity (PRA) was determined by the method of Burton et al., Biochemistry 14, 3892, 1975.

hog renin = details: after the injection of hog renin into nephrectomized rats; cited from earlier work

PRA after 15 min, in words (monkey renin) | PRA at 2 min after treatment, in words (monkey renin) | Plasma renin activity (PRA), Post-Lasix 2 min (monkey renin) | Plasma renin activity (PRA), Post-Lasix 5 min (monkey renin) | Plasma renin activity (PRA), Post-Lasix 15 min (monkey renin) | Plasma renin activity (PRA), Pre-Lasix -24 hr (monkey renin) | Plasma renin activity (PRA), Post-Lasix 0 hr (monkey renin) | SMILES | other results
– | – | – | – | – | – | – | CC(C)C[C@H](NC(=O)[C@H](Cc1ccccc1)NC(=O)CC(C)(C)C)C(=O)N[C@@H](Cc1ccccc1)[C@@H](O)CO [Compound 11, N-(3,3-dimethyl-1-oxobutyl)-L-phenylalanyl-N-[2R,3-dihydroxy-1S-(phenylmethyl)propyl]-L-leucinamide] | Activity, effect on human renin activity (human renin; Dose 4 × 10^-6 (unit not given)): Active
– | – | – | – | – | – | – | CC(C)(C)OC(=O)N[C@@H](Cc1ccccc1)C(=O)N[C@@H](Cc1c[nH]cn1)C(=O)N[C@@H](Cc1ccccc1)[C@@H](O)CO [Compound 7, N-[(1,1-dimethylethoxy)carbonyl]-L-phenylalanyl-N-[2R,3-dihydroxy-1S-(phenylmethyl)propyl]-L-histidinamide] | Activity, effect on human renin activity (human renin; Dose 2.6 × 10^-6 (unit not given)): Active
– | – | – | – | – | – | – | CC(C)C[C@H](NC(=O)[C@H](Cc1cccc2ccccc12)NC(=O)OC(C)(C)C)C(=O)N[C@@H](Cc1ccccc1)[C@@H](O)CO [Compound 8, N-[(1,1-dimethylethoxy)carbonyl]-3-(1-naphthalenyl)-L-alanyl-N-[2R,3-dihydroxy-1S-(phenylmethyl)propyl]-L-leucinamide] | Activity, effect on human renin activity (human renin; Dose 1.5 × 10^-5 (unit not given)): Active
returned to post-lasix levels | returned to pre-lasix values | 13.0 ± 0.2 | 22.7 ± 9.2 | 44.7 ± 5.4 | 13.9 ± 2.5 | 53.1 ± 6.1 | CC(C)CC(=O)N[C@H](C(=O)N[C@H](C(=O)N[C@@H](CC(C)C)[C@@H](O)CC(=O)N[C@@H](C)C(=O)N[C@@H](CC(C)C)[C@@H](O)CC(=O)O)C(C)C)C(C)C [Pepstatin, pepstatin, reference compound] (Isovaleryl-VV[Sta]A[Sta]-OH) | Blood pressure in vivo (hog renin): reduce blood pressure
still lowered | returned to pre-lasix values | 8.4 ± 2.6 | 15.1 ± 3.5 | 23.5 ± 4.6 | 12.2 ± 2.9 | 47.2 ± 7.9 | CC(C)C[C@H](NC(=O)[C@H](Cc1ccccc1)NC(=O)OC(C)(C)C)C(=O)N[C@@H](Cc1ccccc1)[C@@H](O)CO [Compound 4, N-[(1,1-dimethylethoxy)carbonyl]-L-phenylalanyl-N-[2R, 3-dihydroxy-1S-(phenylmethyl)propyl]-L-leucinamide] | Activity, effect on human renin activity (human renin; Dose 8.4 × 10^-6 (unit not given)): Active
